Patent US6531140B2, “Anti-irritant compositions containing a cyclic nucleotide” (E-L Management, priority 1999, dated 2003)

Legend:
cAMP-PDE = conditions: in vitro; cited from earlier work
[1] = tested on: skin irritation caused by Balsam of Peru; assay: Balsam of Peru skin irritation test on ventral forearms of panelists (skin redness, Minolta Chromameter); assay type: in vivo, human; conditions: topical; for Percent Reduction in the onset of irritation: Example 2, before Balsam of Peru
Source text: Eight female volunteer panelists between the ages of 21 and 55 having a history of skin sensitivity to Balsam of Peru are chosen for a study. […] The panelists have a history of skin reactivity to Balsam of Peru which manifests itself in the form of an immediate urticaria reaction. The test sites on the ventral forearms of the panelists are devoid of warts, nevi, moles, sunburn, suntan, scars and active dermal lesions. Pregnant or lactating volunteers are excluded. […] The composition is given time, about 20 minutes, to absorb into the skin on the forearm. Next, an irritant, Balsam of Peru, 8.00 percent in petrolatum, is applied to the test area of the skin and when redness appears within 30 to 40 minutes after application, Balsam of Peru is wiped off with a wet towel. Skin redness is measured with the Minolta Chromameter. Skin irritation is measured in terms of an increase in skin redness measured using a Minolta Chromameter and compared with a negative and a positive control. The positive control is the color of the skin treated solely with Balsam of Peru, and the negative control is the color of the skin treated with a cola […] solution in 10% hydroalcohol (1:1).

[2] = tested on: inflammatory parameters in atopic dermatitis; conditions: in vivo; cited from earlier work
cGMP-PDE = conditions: in vitro; cited from earlier work

## Nc1ncnc2c1ncn2C1CC2OP(=O)(O)OCC2O1 (centres unmarked) [2′-deoxy cAMP, 2′-deoxy adenosine 3 ′5′ cyclic monophosphate]
cAMP-PDE
  inhibition of cAMP-PDE: specific and potent in vitro inhibitors
[1]; Example 1, 0.5 percent in magnesium buffer, applied about 20 minutes before 8.00 percent Balsam of Peru in petrolatum, eight female panelists
  reduction in the onset of irritation: 74%
[1]; 0.5% concentration
  Percent Reduction in the onset of irritation: 71%

## COc1ccc(C2CNC(=O)NC2)cc1O[C@H]1C[C@@H]2CC[C@H]1C2 [CP80,633]
[2]
  reduction of inflammatory parameters: significant reduction of inflammatory parameters

## COc1ccc(C2CNC(=O)C2)cc1OC1CCCC1 (centres unmarked) [Rolipram]
[1]; 1% concentration
  Percent Reduction in the onset of irritation: 69%

## Cn1c(=O)c2c(ncn2C)n(C)c1=O [Caffeine, caffeine]
[1]; 1% concentration
  Percent Reduction in the onset of irritation: 45%

## CCCCOc1cc(CC2CNC(=O)N2)ccc1OC (centres unmarked) [Ro-12-1724]
[1]; 1% concentration
  Percent Reduction in the onset of irritation: 57%

## O=c1[nH]cnc2c1ncn2[C@@H]1O[C@@H]2COP(=O)(O)O[C@H]2[C@H]1O [cIMP, cyclic IMP]
[1]; 1% concentration
  Percent Reduction in the onset of irritation: 42%

## Nc1nc2c(ncn2[C@H]2C[C@@H]3OP(=O)(O)OC[C@H]3O2)c(=O)[nH]1 [2′-deoxy cGMP]
cGMP-PDE
  inhibition of cGMP-PDE: specific and potent in vitro inhibitors

## CC(=O)CCCCn1c(=O)c2c(ncn2C)n(C)c1=O [Pentoxifylline, pentoxifylline]
[1]; 1% concentration
  Percent Reduction in the onset of irritation: 50%

## CC(C)Cn1c(=O)n(C)c(=O)c2[nH]cnc21 [IBMX, 3-isobutyl 1-methyl xanthine]
[1]; 1% concentration
  Percent Reduction in the onset of irritation: 66%
